In brackets after ≈: the same amount, converted by molar mass. Each block holds one molecule with its values, some of them ahead of it.
Columns and labels:
[1] = Aqueous solubility of the compound at pH 7.4; assay type: physicochemical; settings: aqueous medium
[2] = in vitro; settings: human, hepatocytes
[3] = Volume of distribution at steady state in rat; assay type: ADME, organism-based; settings: in vivo, read-out: Vdss
[4] = Oral bioavailability in rat; assay type: ADME, organism-based; settings: in vivo
[5] = Volume of distribution at steady state in dog; assay type: ADME, organism-based, Canis lupus familiaris; settings: in vivo, read-out: Vdss
[6] = Oral bioavailability in dog; assay type: ADME, organism-based, Canis lupus familiaris; settings: in vivo
[7] = Clearance in rat; assay type: ADME, organism-based; settings: in vivo
[8] = Half life in rat; assay type: ADME, organism-based; settings: in vivo
[9] = Clearance in dog; assay type: ADME, organism-based, Canis lupus familiaris; settings: in vivo
[10] = Half life in dog; assay type: ADME, organism-based, Canis lupus familiaris; settings: in vivo
[11] = Lipophilicity, log D of the compound at pH 7.4; assay type: physicochemical; settings: buffer
[12] = Dissociation constant, pKa of the compound; assay type: physicochemical
[13] = Apparent permeability of the compound from apical to basolateral side across human Caco2 cells at 10 uM; assay type: ADME, cell-based; settings: Caco-2
[14] = Apparent permeability of the compound from basolateral to apical side across human Caco2 cells at 10 uM; assay type: ADME, cell-based; settings: Caco-2

Structure (SMILES): Cc1ccc(NC(=O)c2ccnc(N3CCOCC3)c2)cc1-n1cnc2ccc(N3CCN(C)CC3)cc2c1=O
- solubility [1]: 300 µM (≈ 162 µg/mL)
- hepatocyte CLint [2]: 17 µL/min/1e6 cells

Structure (SMILES): Cc1ccc(NC(=O)c2ccnc(N3CCOCC3)c2)cc1-n1c(C)nc2ccc(N3CCN(C)CC3)cc2c1=O
- solubility [1]: 300 µM (≈ 166 µg/mL)

Structure (SMILES): Cc1ccc(NC(=O)c2cscn2)cc1-n1cnc2ccc(N3CCN(C)CC3)cc2c1=O
- hepatocyte CLint [2]: 7 µL/min/1e6 cells

Structure (SMILES): Cc1ccc(NC(=O)c2cncs2)cc1-n1cnc2ccc(N3CCN(C)CC3)cc2c1=O
- hepatocyte CLint [2]: < 3 µL/min/1e6 cells

Structure (SMILES): Cc1ccc(C(=O)Nc2ccon2)cc1-n1cnc2ccc(N3CCN(C)CC3)cc2c1=O
- clearance [7]: 17 mL/min/kg
- half-life [8]: 1.7 h
- Vd [3]: 2.5 L/kg
- bioavailability [4]: 41%
- clearance [9]: 19 mL/min/kg
- Vd [5]: 3.7 L/kg
- half-life [10]: 4 h
- bioavailability [6]: 20%

Structure (SMILES): Cc1ccc(C(=O)NC2CC2)cc1-n1cnc2ccc(N3CCN(C)CC3)cc2c1=O [AZD-6703]
- clearance [7]: 26 mL/min/kg
- Vd [3]: 1.9 L/kg
- bioavailability [4]: 49%
- clearance [9]: 24 mL/min/kg
- Vd [5]: 3.3 L/kg
- half-life [10]: 1.7 h
- bioavailability [6]: 68%
- logD [11]: 1.6
- pKa [12]: 7.6
- Papp A→B at 10 µM [13]: 6 ×10⁻⁶ cm/s
- Papp B→A at 10 µM [14]: 11 ×10⁻⁶ cm/s
- hepatocyte CLint [2]: 2 µL/min/1e6 cells

Next, values leading:

- solubility [1]: 300 µM (≈ 162 µg/mL)
Structure (SMILES): Cc1ccc(NC(=O)c2cccc(N3CCOCC3)c2)cc1-n1cnc2ccc(N3CCN(C)CC3)cc2c1=O

- hepatocyte CLint [2]: 6 µL/min/1e6 cells
Structure (SMILES): Cc1ccc(NC(=O)c2ccccc2)cc1-n1cnc2ccc(N3CCN(C)CC3)cc2c1=O

- hepatocyte CLint [2]: 5 µL/min/1e6 cells
Structure (SMILES): COc1ccccc1C(=O)Nc1ccc(C)c(-n2cnc3ccc(N4CCN(C)CC4)cc3c2=O)c1

- hepatocyte CLint [2]: < 3 µL/min/1e6 cells
Structure (SMILES): Cc1ccc(NC(=O)c2cccc(C#N)c2)cc1-n1cnc2ccc(N3CCN(C)CC3)cc2c1=O

- Vd [3]: 4.8 L/kg
- bioavailability [4]: 29%
- Vd [5]: 7.8 L/kg
- bioavailability [6]: 53%
Structure (SMILES): Cc1ccc(NC(=O)c2ccc(C#N)cc2)cc1-n1cnc2ccc(N3CCN(C)CC3)cc2c1=O

- hepatocyte CLint [2]: 7 µL/min/1e6 cells
Structure (SMILES): Cc1ccc(NC(=O)c2ccccc2F)cc1-n1cnc2ccc(N3CCN(C)CC3)cc2c1=O

- hepatocyte CLint [2]: 11 µL/min/1e6 cells
Structure (SMILES): Cc1ccc(NC(=O)c2cccc(F)c2)cc1-n1cnc2ccc(N3CCN(C)CC3)cc2c1=O

- hepatocyte CLint [2]: 5 µL/min/1e6 cells
Structure (SMILES): Cc1ccc(NC(=O)c2ccno2)cc1-n1cnc2ccc(N3CCN(C)CC3)cc2c1=O
